Values joined by “and” are separate entries in the source; they are usually repeats but may differ in a detail not shown here. Equal entries are not always repeated. Where two headings read alike, the source gives them in different places.
Columns and labels:
Assay in all cases: Methyltransferase selectivity assay (SPA)
Assay type in all cases: biochemical
MLL1 trimeric complex = biological target: T1, MLL1 trimeric complex (Homo sapiens, UniProt Q03164)
T1 construct: purchased Structural Genomics Consortium (SGC Toronto) in-house methyltransferase panel
Protocol: (§1) Selectivity against methyltransferases were determined as described previously. Details of the assays are described in the supplementary methods.
(§2) Methyltransferase selectivity assay1
(§3) The effect of chemical probes and negative controls on the methyltransferase activities of protein, DNA and RNA methyltransferases was tested by radiometric assays using 3H-SAM. For proteins such as MLL1 trimeric, MLL3 pentameric, EZH1 (PRC2) pentameric, and EZH2 (PRC2) trimeric complexes, as well as G9a, GLP, SUV39H1, SUV39H2, SUV420H1, SUV420H2, SETD2, SETD8, SETDB1, SETD7, PRMT1, PRMT3, PRMT4, PRMT5/ MEP50 complex, PRMT6, PRMT7, PRMT8, PRMT9, PRDM9, SMYD2, SMYD3, DNMT1, and BCDIN3D the incorporation of a tritium-labeled methyl group into biotinylated substrate was monitored using scintillation proximity assay (SPA). Briefly, a 10 µL reaction containing 3H-SAM and substrate at concentrations close to the apparent Km values for each enzyme (balanced conditions) was prepared. The reactions were quenched with 10 µL of 7.5 M guanidine hydrochloride; 180 µL of 20 mM Tris buffer (pH 8.0) were added, and the mixture was transferred to a 96-well FlashPlate and incubated for 1 h. The counts per minute (CPM) was measured on a TopCount plate reader. The CPM in the absence of compound or enzyme was defined as 100% activity and background (0%), respectively, for each dataset. […]

PRMT5/ MEP50 complex = biological target: T2, PRMT5/ MEP50 complex (Homo sapiens, UniProt O14744)
T2 construct: purchased Structural Genomics Consortium (SGC Toronto) in-house methyltransferase panel
T2 sequence (O14744 whole entry): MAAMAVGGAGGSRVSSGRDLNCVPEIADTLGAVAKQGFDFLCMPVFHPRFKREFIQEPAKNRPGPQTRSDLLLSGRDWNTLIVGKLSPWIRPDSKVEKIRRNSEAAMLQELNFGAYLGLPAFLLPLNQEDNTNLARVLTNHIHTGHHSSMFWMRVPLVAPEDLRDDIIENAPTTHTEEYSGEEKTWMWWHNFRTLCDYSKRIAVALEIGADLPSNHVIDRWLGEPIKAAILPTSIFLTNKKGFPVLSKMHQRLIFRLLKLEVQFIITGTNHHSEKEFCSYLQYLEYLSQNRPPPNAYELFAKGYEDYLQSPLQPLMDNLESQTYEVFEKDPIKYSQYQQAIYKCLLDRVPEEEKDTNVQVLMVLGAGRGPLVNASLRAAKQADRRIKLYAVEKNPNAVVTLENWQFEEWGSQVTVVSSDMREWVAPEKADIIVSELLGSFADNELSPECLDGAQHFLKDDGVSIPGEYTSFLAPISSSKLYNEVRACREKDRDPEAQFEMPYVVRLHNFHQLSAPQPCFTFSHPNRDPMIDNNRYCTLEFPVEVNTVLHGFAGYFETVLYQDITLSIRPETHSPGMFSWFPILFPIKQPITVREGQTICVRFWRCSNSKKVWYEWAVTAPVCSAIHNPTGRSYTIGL
T2 sequence (Q9BQA1 whole entry partner): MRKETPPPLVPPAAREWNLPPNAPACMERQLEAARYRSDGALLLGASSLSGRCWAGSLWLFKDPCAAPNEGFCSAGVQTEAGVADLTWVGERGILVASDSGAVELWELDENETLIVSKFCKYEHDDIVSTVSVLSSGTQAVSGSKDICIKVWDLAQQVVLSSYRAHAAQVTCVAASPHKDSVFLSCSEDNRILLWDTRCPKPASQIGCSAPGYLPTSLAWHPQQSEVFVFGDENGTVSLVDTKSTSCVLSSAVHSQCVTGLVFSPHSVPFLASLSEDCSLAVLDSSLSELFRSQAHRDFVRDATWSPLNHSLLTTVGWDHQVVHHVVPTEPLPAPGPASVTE
Protocol: as §1, §2, §3

PRMT7 = biological target: T3, PRMT7 (Homo sapiens, UniProt Q9NVM4)
T3 construct: purchased Structural Genomics Consortium (SGC Toronto) in-house methyltransferase panel
T3 sequence (Q9NVM4 1-692): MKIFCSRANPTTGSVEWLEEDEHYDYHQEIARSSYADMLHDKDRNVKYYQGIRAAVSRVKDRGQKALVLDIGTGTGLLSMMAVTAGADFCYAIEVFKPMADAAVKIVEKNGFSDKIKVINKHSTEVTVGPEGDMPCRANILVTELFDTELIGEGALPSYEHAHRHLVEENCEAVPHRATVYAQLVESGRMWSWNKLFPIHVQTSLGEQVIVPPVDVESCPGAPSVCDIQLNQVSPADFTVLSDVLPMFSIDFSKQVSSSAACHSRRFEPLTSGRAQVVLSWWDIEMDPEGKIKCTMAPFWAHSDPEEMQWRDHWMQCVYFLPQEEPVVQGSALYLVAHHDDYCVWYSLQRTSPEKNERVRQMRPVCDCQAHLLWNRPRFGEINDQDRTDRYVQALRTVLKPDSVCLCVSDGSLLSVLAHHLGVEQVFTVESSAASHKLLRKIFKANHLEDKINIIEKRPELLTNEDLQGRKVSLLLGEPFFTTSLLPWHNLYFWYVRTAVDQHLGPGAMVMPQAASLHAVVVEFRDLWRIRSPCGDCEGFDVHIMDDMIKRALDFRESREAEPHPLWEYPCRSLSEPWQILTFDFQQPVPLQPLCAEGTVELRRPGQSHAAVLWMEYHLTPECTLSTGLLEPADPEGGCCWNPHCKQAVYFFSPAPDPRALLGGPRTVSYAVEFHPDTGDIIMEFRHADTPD
Protocol: as §1, §2, §3

PRMT9 = biological target: T4, PRMT9 (Homo sapiens, UniProt Q6P2P2)
T4 construct: purchased Structural Genomics Consortium (SGC Toronto) in-house methyltransferase panel
T4 sequence (Q6P2P2 1-845): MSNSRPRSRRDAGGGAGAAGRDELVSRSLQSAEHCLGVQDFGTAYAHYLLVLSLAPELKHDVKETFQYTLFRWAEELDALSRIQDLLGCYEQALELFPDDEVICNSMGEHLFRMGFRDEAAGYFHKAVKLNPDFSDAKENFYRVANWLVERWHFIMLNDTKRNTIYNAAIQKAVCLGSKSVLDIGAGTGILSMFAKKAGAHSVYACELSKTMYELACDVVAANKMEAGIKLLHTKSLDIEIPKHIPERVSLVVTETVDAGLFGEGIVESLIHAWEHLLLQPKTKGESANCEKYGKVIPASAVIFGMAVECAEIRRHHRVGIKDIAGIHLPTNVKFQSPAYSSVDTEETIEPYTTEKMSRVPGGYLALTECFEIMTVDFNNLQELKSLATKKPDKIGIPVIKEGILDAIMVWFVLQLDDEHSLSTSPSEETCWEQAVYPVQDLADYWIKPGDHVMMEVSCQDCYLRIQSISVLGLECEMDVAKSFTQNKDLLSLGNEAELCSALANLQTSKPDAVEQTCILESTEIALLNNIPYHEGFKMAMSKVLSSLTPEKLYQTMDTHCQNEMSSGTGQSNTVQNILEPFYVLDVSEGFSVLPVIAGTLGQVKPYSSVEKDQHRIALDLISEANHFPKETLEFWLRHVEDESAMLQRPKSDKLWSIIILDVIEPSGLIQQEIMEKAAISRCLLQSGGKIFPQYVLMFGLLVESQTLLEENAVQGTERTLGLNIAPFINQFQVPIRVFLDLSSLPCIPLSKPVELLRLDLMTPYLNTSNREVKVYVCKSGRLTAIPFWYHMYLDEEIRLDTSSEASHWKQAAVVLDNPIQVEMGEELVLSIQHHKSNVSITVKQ
Protocol: as §1, §2, §3

SMYD3 = biological target: T5, SMYD3 (Homo sapiens, UniProt Q9H7B4)
T5 construct: purchased Structural Genomics Consortium (SGC Toronto) in-house methyltransferase panel
T5 sequence (Q9H7B4 1-428): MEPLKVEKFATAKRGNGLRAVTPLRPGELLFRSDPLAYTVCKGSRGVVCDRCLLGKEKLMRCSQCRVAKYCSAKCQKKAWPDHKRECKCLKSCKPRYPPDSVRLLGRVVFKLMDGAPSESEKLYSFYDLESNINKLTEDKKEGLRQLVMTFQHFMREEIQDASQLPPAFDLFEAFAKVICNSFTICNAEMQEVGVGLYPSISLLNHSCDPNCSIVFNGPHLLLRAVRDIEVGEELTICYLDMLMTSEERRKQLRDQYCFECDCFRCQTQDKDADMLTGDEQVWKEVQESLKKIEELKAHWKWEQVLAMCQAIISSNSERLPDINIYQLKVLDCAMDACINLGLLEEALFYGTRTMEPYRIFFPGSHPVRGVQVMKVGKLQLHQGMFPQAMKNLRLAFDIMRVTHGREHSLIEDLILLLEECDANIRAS
Protocol: as §1, §2, §3

[1] = 10µM compound, Exp1, Exp2, 10 µM
[2] = 1µM compound, Exp1, Exp2, read-out: Activity %
[3] = 10µM compound, Exp1, Exp2, read-out: Activity %

COc1cc(OC)cc(-c2noc(N3CCN(C)C4(CCN(c5ccccc5)CC4)C3)n2)c1 [MRK-740 -NC]
activity at 1 µM (MLL1 trimeric complex; 1µM compound, Exp1, Exp2): 95%
activity at 10 µM (MLL1 trimeric complex; 10µM compound, Exp1, Exp2): 98%
Activity % (MLL1 trimeric complex; [1]): 97%
activity at 1 µM (PRMT5/ MEP50 complex; 1µM compound, Exp1, Exp2): 108%
Activity % (PRMT5/ MEP50 complex; 1µM compound, Exp1, Exp2, 1 µM): 99%
activity at 10 µM (PRMT5/ MEP50 complex; 10µM compound, Exp1, Exp2): 95%
Activity % (PRMT5/ MEP50 complex; [1]): 102%
activity at 1 µM (PRMT7; 1µM compound, Exp1, Exp2): 99%
Activity % (PRMT7; 1µM compound, Exp1, Exp2, 1 µM): 92%
activity at 10 µM (PRMT7; 10µM compound, Exp1, Exp2): 91%
Activity % (PRMT7; [1]): 97%
activity at 1 µM (PRMT9; 1µM compound, Exp1, Exp2): 102%
Activity % (PRMT9; 1µM compound, Exp1, Exp2, 1 µM): 106%
activity at 10 µM (PRMT9; 10µM compound, Exp1, Exp2): 98%
activity at 1 µM (SMYD3; 1µM compound, Exp1, Exp2): 100%
Activity % (SMYD3; 1µM compound, Exp1, Exp2, 1 µM): 102%
activity at 10 µM (SMYD3; 10µM compound, Exp1, Exp2): 96%
Activity % (SMYD3; [1]): 89%

COc1cc(OC)cc(-c2noc(N3CCN(C)C4(CCN(c5ccnc(C)c5)CC4)C3)n2)c1 [MRK-740]
Activity % (MLL1 trimeric complex; 1µM compound, Exp1, Exp2, 1 µM): 90%
activity at 1 µM (MLL1 trimeric complex; [2]): 96%
Activity % (MLL1 trimeric complex; [1]): 90%
activity at 10 µM (MLL1 trimeric complex; [3]): 94%
activity at 1 µM (PRMT5/ MEP50 complex; [2]): 90%
activity at 10 µM (PRMT5/ MEP50 complex; [3]): 94%
Activity % (PRMT7; 1µM compound, Exp1, Exp2, 1 µM): 90%
activity at 1 µM (PRMT7; [2]): 92%
Activity % (PRMT7; [1]): 87%
activity at 10 µM (PRMT7; [3]): 89%
activity at 1 µM (PRMT9; [2]): 100%
Activity % (PRMT9; [1]): 89% and 114%
Activity % (SMYD3; 1µM compound, Exp1, Exp2, 1 µM): 91%
activity at 1 µM (SMYD3; [2]): 95%
Activity % (SMYD3; [1]): 101%
activity at 10 µM (SMYD3; [3]): 96%

Reference: publication PMC6917776, “Discovery of a chemical probe for PRDM9” (Nature Communications, 2019)
